From patent publication EP0485890A2, “Use of 2,3-disubstituate 1-azolyl-propane for inhibiting the pathogenic growth phase of dimorph yeast cell” (HOECHST AKTIENGESELLSCHAFT, priority 1990, dated 1992)
In brackets after ≈: the same amount, converted by molar mass.

Columns and labels:
Candida albicans = assay: Minimal inhibitory concentration (MHK) in vitro; assay type: cell-based; settings: read-out: MHK von Candida albicans
From the text: Außerdem wird deutlich, daß zur Erreichung einer ausgeprägten Hemmwirkung der Phospholipase-Aktivität Dosen ausreichen, die deutlich unterhalb derjenigen liegen, die zur Hemmung des Pilzwachstums in vitro nötig sind und welche bisher für eine reine antimykotische Therapie als unbedingt erforderlich erachtet wurden (sihe MHK-Werte von Candida albicans einiger ausgewählter Derivate).

[1] = tested on: Lysophospholipase (Phospholipase B); assay: In vitro enzyme test: inhibition of released exoenzymes (phospholipase) of Candida albicans blastoconidia on egg-yolk agar; assay type: cell-based; settings: Candida albicans Stamm 200/175
From the text: Als Beispiel für die Hemmung der pathogenen Phase dimorpher Hefezellen werden Ergebnisse eines in-vitro-Enzymtests angeführt, in welchen die prozentuale Hemmung freigesetzter Exoenzyme, insbesondere freigesetzter Lysophospholipase (Phospholipase B), als Maß für die Wirksamkeit bestimmt wird.
Zur Feststellung der Enzymhemmung wurde eine Suspension von Candida albicans Blastokonidien (Stamm 200/175), wobei die Keimdichte photometrisch auf eine Extinktion von 0,5 (500 nm) eingestellt war, mit Präparatelösung bzw. zur Kontrolle mit Lösungsmittellösung vermischt und zwar • a) 100 ul Präparatelösung (Suspension) • + 900 µl Keimsuspension • b) 100 µl Lösungsmittel • + 900 µl Keimsuspension • Jeweils 5 µl der 30 min bei 21 ° C inkubierten Blastokonidiensuspension wurden auf eine Agarplatte (Sabourand Agar mit Zusatz von 8 % Eigelb, 1 M NaCI, 5 mM CaC12) aufgetropft. • Die so beimpfte Platte wurde 3 Tage bei 37 ° C bebrütet.
Die Auswertung erfolgte derart, daß • 1. der Durchmesser (mm) der Candida albicans-Kolonie (behandelt und unbehandelt) sowie • 2. der Gesamtdurchmesser von Kolonie und Trübungshof, welcher durch Exoenzyme verursacht wurde (behandelt und unbehandelt) bestimmt wurde.
Aus der Bestimmung des Quotienten von Präparate- und Kontrollgruppe ergab sich ein Wert, der als Maß für die Enzymaktivität anzusehen war.

With CCN(CC(Cn1ccnc1)OCC=C(C)CCC=C(C)C)c1ccc(Cl)cc1 (stereo not drawn) [1.1] the MIC (Candida albicans) was greater than 125 µg/mL, the “% Hemmung der Phospholipase” value ([1]; Konzentration 1 µg/ml) was 15% and the “% Hemmung der Phospholipase” value ([1]; Konzentration 5 µg/ml) was 60%. For the same molecule, the “% Hemmung der Phospholipase” value ([1]; Konzentration 10 µg/ml) was 100%.

For CCN(CC(Cn1ccnc1)OCc1ccc(Cl)cc1)c1ccc(Cl)cc1 (stereo not drawn) [1.2], the “% Hemmung der Phospholipase” value ([1]; Konzentration 50 µg/ml) was 90%.

CC(C)N(CC(Cn1ccnc1)OCc1ccc(Cl)cc1)c1ccc(Cl)c(Cl)c1 (stereo not drawn) [1.3] was tested, and the MIC (Candida albicans) was 125 µg/mL (≈ 276 µM), the “% Hemmung der Phospholipase” value ([1]; Konzentration 10 µg/ml) was 25% and the “% Hemmung der Phospholipase” value ([1]; Konzentration 50 µg/ml) was 100%.

In the case of Clc1ccc(COC(CN2CCN(c3ccc(Cl)cc3)CC2)Cn2ccnc2)cc1 (stereo not drawn) [1.4], the “% Hemmung der Phospholipase” value ([1]; Konzentration 50 µg/ml) is reported as 100%.

For OC(CN(Cc1ccc(Cl)cc1)c1ccc(Cl)cc1)Cn1ccnc1 (stereo not drawn) [1.5], the “% Hemmung der Phospholipase” value ([1]; Konzentration 50 µg/ml) was 100%.

COC(CN(Cc1ccc(Cl)cc1)c1ccc(Cl)cc1)Cn1ccnc1 (stereo not drawn) [1.6] was tested, and the “% Hemmung der Phospholipase” value ([1]; Konzentration 50 µg/ml) was 100%.

With OC(CN(Cc1ccc(Cl)cc1)Cc1ccc(Cl)cc1)Cn1ccnc1 (stereo not drawn) [1.8] the “% Hemmung der Phospholipase” value ([1]; Konzentration 50 µg/ml) was 100%.

For Clc1ccc(OCC(Cn2ccnc2)N2CCN(c3ccccc3)CC2)cc1 (stereo not drawn) [1.9], the “% Hemmung der Phospholipase” value ([1]; Konzentration 50 µg/ml) was 100%.

For Clc1ccc(SC(COc2ccc(Cl)cc2Cl)Cn2ccnc2)cc1 (stereo not drawn) [1.10], the “% Hemmung der Phospholipase” value ([1]; Konzentration 50 µg/ml) was 50%.

With Clc1ccc(N2CCN(C(COc3ccc(Cl)cc3Cl)Cn3ccnc3)CC2)cc1 (stereo not drawn) [1.11] the “% Hemmung der Phospholipase” value ([1]; Konzentration 50 µg/ml) was 100%.

With CN(CC(Cn1ccnc1)OCc1ccc(Cl)cc1Cl)c1ccc(Cl)cc1 (stereo not drawn) [1.12] the “% Hemmung der Phospholipase” value ([1]; Konzentration 50 µg/ml) was 100%.

In the case of Clc1ccc(COC(CNc2ccc(Cl)cc2)Cn2ccnc2)cc1 (stereo not drawn) [1.13], the “% Hemmung der Phospholipase” value ([1]; Konzentration 50 µg/ml) is reported as 26% and the “% Hemmung der Phospholipase” value ([1]; Konzentration 100 µg/ml) is reported as 33%.

For CCN(CC(Cn1ccnc1)OCc1ccc(Cl)cc1)c1ccc(Cl)c(Cl)c1 (stereo not drawn) [1.14], the “% Hemmung der Phospholipase” value ([1]; Konzentration 50 µg/ml) was 30% and the “% Hemmung der Phospholipase” value ([1]; Konzentration 100 µg/ml) was 100%.

CCN(CC(Cn1ccnc1)Sc1ccc(Cl)cc1)c1ccc(Cl)c(Cl)c1 (stereo not drawn) [1.15] was tested, and the MIC (Candida albicans) was 125 µg/mL (≈ 284 µM) and the “% Hemmung der Phospholipase” value ([1]; Konzentration 50 µg/ml) was 100%.

With CCN(CC(Cn1ccnc1)OCc1ccc(Cl)cc1Cl)c1ccc(Cl)c(Cl)c1 (stereo not drawn) [1.16] the MIC (Candida albicans) was 125 µg/mL (≈ 264 µM) and the “% Hemmung der Phospholipase” value ([1]; Konzentration 50 µg/ml) was 100%.

In the case of CCN(CC(Cn1ccnc1)OCc1ccc(Cl)cc1)c1cccc(C(F)(F)F)c1 (stereo not drawn) [1.17], the “% Hemmung der Phospholipase” value ([1]; Konzentration 50 µg/ml) is reported as 12% and the “% Hemmung der Phospholipase” value ([1]; Konzentration 100 µg/ml) is reported as 38%.

With CCN(CC(Cn1ccnc1)OCc1ccc(Cl)cc1)c1ccc(Cl)cc1Cl (stereo not drawn) [1.18] the “% Hemmung der Phospholipase” value ([1]; Konzentration 50 µg/ml) was 60%.

In the case of CCN(CC(Cn1ccnc1)SCc1ccc(Cl)cc1)c1cccc(C(F)(F)F)c1 (stereo not drawn) [1.19], the MIC (Candida albicans) is reported as 125 µg/mL (≈ 275 µM) and the “% Hemmung der Phospholipase” value ([1]; Konzentration 50 µg/ml) is reported as 71,4%.

For Clc1ccc(N2CCN(C(COCc3ccc(Cl)cc3Cl)Cn3ccnc3)CC2)cc1 (stereo not drawn) [1.20], the “% Hemmung der Phospholipase” value ([1]; Konzentration 50 µg/ml) was 100%.

For CCN(CC(Cn1ccnc1)OCc1cccc(Cl)c1)c1ccc(Cl)cc1 (stereo not drawn) [1.21], the MIC (Candida albicans) was 125 µg/mL (≈ 309 µM), the “% Hemmung der Phospholipase” value ([1]; Konzentration 10 µg/ml) was 12,7% and the “% Hemmung der Phospholipase” value ([1]; Konzentration 50 µg/ml) was 50%.

CCN(CC(Cn1ccnc1)OCc1ccc(Cl)cc1Cl)c1ccc(Cl)cc1 (stereo not drawn) [1.22] was tested, and the MIC (Candida albicans) was 125 µg/mL (≈ 285 µM), the “% Hemmung der Phospholipase” value ([1]; Konzentration 10 µg/ml) was 23,1% and the “% Hemmung der Phospholipase” value ([1]; Konzentration 50 µg/ml) was 100%.

For CC(=NOCC(Cn1ccnc1)OCc1ccc(Cl)cc1Cl)c1ccc(Cl)cc1 (stereo not drawn) [1.23], the “% Hemmung der Phospholipase” value ([1]; Konzentration 10 µg/ml) was 35,7% and the “% Hemmung der Phospholipase” value ([1]; Konzentration 50 µg/ml) was 100%.

With CC(=NOCC(Cn1ccnc1)OCc1ccc(Cl)cc1)c1ccc(Cl)cc1 (stereo not drawn) [1.24] the “% Hemmung der Phospholipase” value ([1]; Konzentration 10 µg/ml) was 24,3% and the “% Hemmung der Phospholipase” value ([1]; Konzentration 50 µg/ml) was 50%.

With CCN(CC(Cn1ccnc1)OCc1ccc(Cl)cc1)c1cccc(Cl)c1 (stereo not drawn) [1.25] the “% Hemmung der Phospholipase” value ([1]; Konzentration 10 µg/ml) was 27,3% and the “% Hemmung der Phospholipase” value ([1]; Konzentration 50 µg/ml) was 60%.

With CC(=NOCC(Cn1ccnc1)Sc1ccc(Cl)cc1)c1ccc(Cl)cc1 (stereo not drawn) [1.26] the “% Hemmung der Phospholipase” value ([1]; Konzentration 10 µg/ml) was 50% and the “% Hemmung der Phospholipase” value ([1]; Konzentration 50 µg/ml) was 90%.

With CCN(CC(Cn1ccnc1)OCc1ccc(Cl)cc1Cl)c1cccc(Cl)c1 (stereo not drawn) [1.28] the MIC (Candida albicans) was 125 µg/mL (≈ 285 µM), the “% Hemmung der Phospholipase” value ([1]; Konzentration 50 µg/ml) was 61,5% and the “% Hemmung der Phospholipase” value ([1]; Konzentration 100 µg/ml) was 100%.

In the case of CC(=NOCC(Cn1ccnc1)OCc1ccc(Cl)cc1)c1ccc(Cl)cc1Cl (stereo not drawn) [1.29], the “% Hemmung der Phospholipase” value ([1]; Konzentration 10 µg/ml) is reported as 20,6% and the “% Hemmung der Phospholipase” value ([1]; Konzentration 50 µg/ml) is reported as 100%.

In the case of Clc1ccc(CN2CCN(C(COc3ccc(Cl)cc3Cl)Cn3ccnc3)CC2)cc1 (stereo not drawn) [1.30], the “% Hemmung der Phospholipase” value ([1]; Konzentration 50 µg/ml) is reported as 100%.

For Clc1ccc(OCC(Cn2ccnc2)N2CCN(Cc3ccc(Cl)cc3Cl)CC2)cc1 (stereo not drawn) [1.31], the “% Hemmung der Phospholipase” value ([1]; Konzentration 50 µg/ml) was 38,6% and the “% Hemmung der Phospholipase” value ([1]; Konzentration 100 µg/ml) was 90%.

For CC(=NOCC(Cn1ccnc1)OCc1ccc(Cl)cc1Cl)c1ccc(Cl)cc1Cl (stereo not drawn) [1.32], the MIC (Candida albicans) was 125 µg/mL (≈ 257 µM), the “% Hemmung der Phospholipase” value ([1]; Konzentration 10 µg/ml) was 18,2% and the “% Hemmung der Phospholipase” value ([1]; Konzentration 50 µg/ml) was 100%.

In the case of CCCCN(CC(Cn1ccnc1)OCc1ccc(Cl)cc1)c1ccc(Cl)cc1 (stereo not drawn) [1.33], the MIC (Candida albicans) is reported as 125 µg/mL (≈ 289 µM), the “% Hemmung der Phospholipase” value ([1]; Konzentration 10 µg/ml) is reported as 24% and the “% Hemmung der Phospholipase” value ([1]; Konzentration 50 µg/ml) is reported as 80%.

With C=CCN(CC(Cn1ccnc1)OCc1ccc(Cl)cc1)c1ccc(Cl)cc1 (stereo not drawn) [1.34] the “% Hemmung der Phospholipase” value ([1]; Konzentration 10 µg/ml) was 10,7% and the “% Hemmung der Phospholipase” value ([1]; Konzentration 50 µg/ml) was 100%.

CCCCCCCCN(CC(Cn1ccnc1)OCc1ccc(Cl)cc1)c1ccc(Cl)cc1 (stereo not drawn) [1.35] was tested, and the MIC (Candida albicans) was greater than 125 µg/mL, the “% Hemmung der Phospholipase” value ([1]; Konzentration 10 µg/ml) was 45% and the “% Hemmung der Phospholipase” value ([1]; Konzentration 50 µg/ml) was 100%.

In the case of COC(CN(Cc1ccc(Cl)cc1Cl)c1ccc(Cl)cc1)Cn1ccnc1 (stereo not drawn) [1.37], the “% Hemmung der Phospholipase” value ([1]; Konzentration 10 µg/ml) is reported as 16,7%.

In the case of CCCCCCCCOC(CN(CC)c1ccc(Cl)cc1)Cn1ccnc1 (stereo not drawn) [1.40], the MIC (Candida albicans) is reported as 125 µg/mL (≈ 319 µM), the “% Hemmung der Phospholipase” value ([1]; Konzentration 10 µg/ml) is reported as 75,0% and the “% Hemmung der Phospholipase” value ([1]; Konzentration 50 µg/ml) is reported as 100%.

For CCN(CC(O)Cn1ccnc1)c1ccc(Cl)c(Cl)c1 (stereo not drawn) [1.41], the “% Hemmung der Phospholipase” value ([1]; Konzentration 10 µg/ml) was 33,3% and the “% Hemmung der Phospholipase” value ([1]; Konzentration 50 µg/ml) was 100%.

For Clc1ccc(COC(CN2CCCc3ccccc32)Cn2ccnc2)c(Cl)c1 (stereo not drawn) [1.42], the “% Hemmung der Phospholipase” value ([1]; Konzentration 50 µg/ml) was 100%.

In the case of Clc1ccc(COC(CN2CCCc3ccccc32)Cn2ccnc2)cc1 (stereo not drawn) [1.43], the “% Hemmung der Phospholipase” value ([1]; Konzentration 10 µg/ml) is reported as 50% and the “% Hemmung der Phospholipase” value ([1]; Konzentration 50 µg/ml) is reported as 100%.
